Values joined by “and” are separate entries in the source; they are usually repeats but may differ in a detail not shown here. Identical values can stand only once. “Also recorded” adds a separate entry of the source. Counter-ions that a name gives are not always drawn.
Columns and labels:
[1] = test system: primary human keratinocytes; assay: UVB-induced apoptosis, sub-2N DNA content by flow cytometry; assay type: cell-based
[2] = test system: ATR-dependent serine 345 residue of Chk1; assay: Western blot of UVB-induced Chk1 Ser345 phosphorylation in keratinocytes; assay type: cell-based, human; settings: 2 mM caffeine, 75 mJ/cm^2 UVB (Figure 2a)
[3] = test system: primary human keratinocytes; assay: Western blot of UVB-induced caspase 3 and PARP cleavage in keratinocytes; assay type: cell-based; settings: 2 mM caffeine, 75 mJ/cm^2 UVB, 8 h (Figure 1a)
[4] = biological target: cAMP phosphodiesterase; settings: read-out: IC50 cAMP phosphodiesterase; ref Butcher and Sutherland, 1962; cited from earlier work
[5] = humans drinking 2–5 cups of coffee per day; ref de Leon et al., 2003; cited from earlier work
[6] = test system: phosphorylation of Chk1 on Ser345; settings: mice, oral caffeine in drinking water 0.4 mg/ml (2 mM); ref Lu et al., 2008; cited from earlier work
[7] = test system: UV-induced skin carcinogenesis; settings: mice, oral caffeine as drinking fluid 0.4 mg/ml; ref Huang et al., 1997; cited from earlier work
[8] = test system: ATM; settings: read-out: IC50 for ATM; ref Sarkaria et al., 1999; cited from earlier work

Row | Structure (SMILES) | proportion of cells undergoing apoptosis (sub-2N DNA content) ([1]; 2 mM caffeine 30 min before 75 mJ/cm^2 UVB, 24 h, UVB alone 10% (Figure 1b)) | proportion of cells undergoing apoptosis (sub-2N DNA content) ([1]; 2 mM caffeine alone (scrambled siRNA), 75 mJ/cm^2 UVB, 24 h (Figure 2c)) | proportion of cells undergoing apoptosis (sub-2N DNA content) ([1]; 2 mM caffeine plus ATR siRNA, 75 mJ/cm^2 UVB, 24 h (Figure 2c)) | increase in UVB-induced apoptosis vs UVB alone (relative cell death) ([1]; 2 mM caffeine pretreatment, 75 mJ/cm^2 UVB (Figure 1c)) | effect on UVB-induced Chk1 phosphorylation at serine 345 [2] | effect on UVB-induced cleavage of caspase 3 and PARP [3] | IC50 [4] | plasma concentration of caffeine [5] | effect on UVB-induced phosphorylation of Chk1 on Ser345 in the epidermis [6] | effect on UV-induced skin carcinogenesis [7] | IC50 [8] | effect on UVB-induced apoptosis ([1]; doses up to 300 μM, 30 min before 75 mJ/cm^2 UVB, 24 h (Figure 1d))
1 | Cn1c(=O)c2c(ncn2C)n(C)c1=O [caffeine, Caffeine] | 24% | 42% | 48% | two- to three-fold increase; also recorded: more than doubled | inhibited | augmented | 3000 µM | 3.2 mg/l and 16 μM | markedly inhibited | inhibits | 200 µM | 
2 | CCCC(=O)Nc1ncnc2c1ncn2[C@@H]1O[C@@H]2COP(=O)(O)O[C@H]2[C@H]1OC(=O)CCC [dibutyryl cAMP, N^6,2′-O-Dibutyryladenosine 3′,5′-cyclic monophosphate sodium salt] |  |  |  |  |  |  |  |  |  |  |  | no effect

Reference: publication PMC2829385 (The Journal of investigative dermatology, 2009)
